# Experimental data published in patent publication US8785416B2, “Sulphated disaccharides for the treatment of neurodegenerative and/or neurovascular diseases” (Bioiberica, S.A., priority 2009, dated 2014).
# System: TNFα
# Experiment: TNFα production in LPS-activated cerebral cortex astrocytes (RT-PCR)
# Assay type: cell-based, rat
# Conditions: 0.03 μM, simultaneous with 10 μg/mL LPS for 2 hours
# Protocol: Newborn male rats aged 2-3 days were used. After a craniotomy, both cortices were extracted and deposited in a Petri dish with cold PBS. Under a microscope magnifying lens, the meninges of each cortex were extracted. Once clean, they were submersed in cold DMEM and a mechanical dissection was performed with a pipette. Then, the sample was centrifuged at 1,000 rpm for 5 minutes and the supernatant was decanted. The precipitate was resuspended in DMEM with 20% FBS and a mixture of antibiotics (penicillin/streptomycin). Finally, it was passed through a 70 μm filter and seeded in a 75 cm^2 flask with an aerated filter stopper. The calculation for the seeding of the cells was one flask (15 mL of medium) for every newborn used. […]
# Subsequently, the medium of each flask was collected and taken to 50 mL Falcon tubes, they were centrifuged for 5 minutes at 1,000 rpm and the supernatant was decanted. The precipitate was resuspended in DMEM with 10% FBS and antibiotics and the cells were counted for their subsequent seeding.
# The induction of inflammation in the astrocytes was performed by means of adding 10 μg/mL lipopolysaccharide together with the compounds to be studied (compound Ic at 0.03 μM and chondroitin sulphate at 10 μM) for 2 hours. […] The quantification was performed by the direct measurement of absorbance at 260/280 nm in a Nanodrop® spectrophotometer. […]
substance,measurement,value
"methyl 2-acetamido-2-deoxy-3-O-(β-D-glucopyranosyluronic acid)-4,6-di-O-sulpho-α-D-glucopyranoside, trisodium salt [compound Ic]",reduction of the production of TNFα,75%
